Measured values as given in patent US20180036332A1 (Chongqing Institute of Bench-to Bed Bioengineering …, priority 2015, published 2018).

How the values were obtained:
[1] = system: primary endothelial cells HUVEC; assay: MTT cell viability assay of primary endothelial cells HUVEC in low glucose and hypoxia environment; type: cell-based; conditions: 48 hours
[2] = set-up: species or system rats; conditions: rat, in vivo

## Nicotinamide adenine dinucleotide phosphate [NADPH]
[1]; 5 μM NADPH, p<0.05
  survival rate of HUVEC cells: around 65.3%
[1]; 10 μM NADPH, p<0.01
  survival rate of HUVEC cells: around 73.6%
[1]; 20 μM NADPH, p<0.01
  survival rate of HUVEC cells: around 70.9%
[2]
  range of myocardial infarction (weight % of ischemic infarct zone in total ischemic myocardial zone): significantly reduces the range of myocardial infarction
